From paper PMC5219908, “Expression, purification and kinetic characterization of recombinant benzoate dioxygenase from Rhodococcus ruber UKMP-5M” (Molecular Biology Research Communications, 2016) come the findings set out here.

As a reminder, the Km is the concentration of substrate that gives half-maximal velocity.

The subject of the experiment is T1, benzoate dioxygenase.
T1 construct: gene benA; benA amplicon 642 bp (about 213 residues, much shorter than a usual BenA of about 450), His-tag from pET28b, E. coli BL21(DE3), ion exchange; primers encode start MELDRGPAG and end RDVPVYPF; no reductase or beta subunit added
The experiment in a line: NADH oxidation at […] nm, Lineweaver-Burk. The following applies: 25 °C, 3 min; reduced nicotinamide cofactor (NADH; reagent list prints the phosphate form), FeSO4; substrate range printed as 0.1-1.2 mM, far above the Km; pH of kinetic assay not stated. It is filed as biochemical, Rhodococcus ruber.

As to `O=C(O)c1ccccc1` [sodium benzoate], the Km was 5.58 µM.
